Results reported in a melting point compilation (Tetko et al.; mined from patent text by program, amines drawn as free bases though some values may be those of a salt).

melting point [°C] | Structure (SMILES)
166 to 167 | C[C@@H](n1ccn(-c2ccc(OCC(F)(F)C(F)F)cc2)c1=O)[C@](O)(CO)c1ccccc1F
185 to 186 | O=C(NCCO)c1cncc(-c2cccc3nn(Cc4cccc(C(F)(F)F)c4)cc23)c1
188 | CC(C)(C)OC(=O)NC(Cc1ccccc1)C(=O)Oc1ccc(/C=c2\[nH]c(=O)/c(=C/c3ccccc3)[nH]c2=O)nc1 (centres undefined)
205 to 206 | CCOC(=O)N1c2ccccc2Sc2cc(O)c3ccccc3c21
212 | COc1cc2c(cc1OC)CN(CCc1ccc(NC(=O)c3cccc4c(=O)c5cccc(F)c5[nH]c34)cc1)CC2
132 to 136 | O=C(C(=Cc1ccc(Cl)cc1)c1ccc(Cl)cc1)c1ccc(O)cc1
60 to 70 | CC(C(=O)c1ccc2[nH]ccc2c1)N1CCC(O)(c2ccccc2)CC1 (centres undefined)
79 to 81 | CNc1cccc(OCc2ccccc2)c1N
206 to 207 | Cc1c(NC(=O)CC(C)(C)C)c(C)c2c(c1-c1cccc(N3CCCC3)c1)OCC2c1ccc(C(C)C)cc1 (centres undefined)
128 to 130 | CCOC(=O)CN1C(=O)c2cccc3c(Br)ccc1c23
205 to 206 | CC(C)OC(=O)N1c2ccccc2Sc2cc(O)c3ccccc3c21
193 to 194 | CCCCc1nc2c(N)nc3cc(/C=C/C(=O)OC)ccc3c2n1CC(C)C
130 to 132 | CC(C(=S)c1cccc(NC=O)n1)S(C)=O (centres undefined)
53 to 54 | CCN(C(=S)Oc1ccc(C(C)C)cc1)c1cccc(OC)n1
258 to 261 | Cn1ccnc1Sc1ccc(Nc2c(C#N)cnc3cc(Br)ccc23)cc1Cl
162 to 163 | COc1ccc(NC(=NC#N)NC(NC(=O)c2ccc(Cl)cc2)C(C)(Cl)Cl)c(OC)n1 (centres undefined)
224 | O=C1CCC(c2ccccc2)(c2ccccc2)[C@@H]2CN(C(=O)Cc3ccsc3)C[C@H]12 (racemic)
107 to 108 | COCCOC(=O)CC[C@@H](NC(=O)[C@@H](NC(=O)OC(C)(C)C)C(C)C)C(N)=O
90 to 94 | Cc1c(SCCN2CCc3ccccc3C2)ccnc1CSc1nc2ccccc2[nH]1
88 to 90 | CCCCOC(=O)c1c(Cl)nc(CCCC)n1Cc1ccc2oc(-c3ccccc3-c3nnn[nH]3)c(Br)c2c1

melting point [°C] | Structure (SMILES)
97 to 100 | CON=C(C1=NCCO1)c1ccccc1OCc1ccc(Cl)cc1
287 to 289 | O=C(Nc1cn2cc(Cl)ccc2n1)c1ccc(-n2cccn2)cc1
142 | CCn1cc(-c2ccccc2)c2ncccc2c1=O
237 to 239 | CC(C)N1CC(C(S)Oc2cccc3cnccc23)OC1=O (centres undefined)
166 to 169 | CNCC(=O)N(C)Cc1ccc(CCn2cnc3cc(-c4ccc(Cl)cc4)sc3c2=O)cc1
168 to 170 | Cc1nc(Cl)c2cc3c(cc2n1)OCCO3
62 to 66 | C=CCOc1cc(F)nc(N)n1
129 to 130 | CCOCCn1c(C)nc2c(N)ncc(C)c21
103 to 104 | CCCc1nn(C)c(C(N)=O)c1NC(=O)c1sccc1OCC
258 | Cc1ccc(N2C(=O)C(O)=C(C(=O)c3ccc(OC(F)(F)F)cc3)C2c2ccc(Cn3ncnn3)cc2)nn1 (centres undefined)
67 to 70 | C1=C(c2ccncc2)CCC2(C1)OCCO2
205 to 206 | C[C@H](NC(=O)COCCN1C(=O)c2ccccc2C1=O)C(=O)N[C@H](CCC(=O)OCc1ccccc1)C(N)=O
137 | CCCCOc1ccc(S(=O)(=O)C2(C(=O)O)CCN(Cc3ccc(C)cc3)CC2)cc1
106 to 107 | O=C(Nc1cn(C2CCCCO2)nc1C(=O)NCCCOc1ccccc1)c1ccccn1 (centres undefined)
239 to 240 | CC(=O)O[C@H]1[C@H](NC(=N)Nc2ccccc2)c2cc(C#N)ccc2OC1(C)C (relative stereo)
284 to 286 | CCn1cc(C(=O)NC2CCCc3ccccc32)c(=O)c2cnc(N3CCCC3)nc21 (centres undefined)
143 to 145 | CCOC(=O)c1cc2cccc(N(C)S(=O)(=O)c3cccs3)c2n1COC
64 to 66 | CC=CC(=O)c1ccc(CCCCNC(C)=O)cc1
122 to 125 | COc1cc2c(cc1OCc1ccccc1)C(Sc1ccccc1)(C(N)=CC#N)C2 (centres undefined)

Further lines, the molecule ahead of its results:

Structure (SMILES) | melting point [°C]
Nc1c(Br)cc(Cl)cc1C(=O)c1ccccc1Cl | 100 to 101
COc1cc(NC(=O)c2ccc(Cl)cc2)c(C(N)=O)cc1OC | 120 to 122
CCOC(=O)c1cn(CC)c2sc(C=O)cc2c1=O | 205
CCOC(=O)c1oc2cccc(OCC(C)O)c2c1C (centres undefined) | 94 to 96
O=C1N(CC2CCN(c3ccccn3)CC2)c2ccccc2C12COc1cc3c(cc12)OCO3 (centres undefined) | 95 to 97
CNc1ccc2cc(OC)ccc2c1N=O | 261
O=[N+]([O-])c1ccc(NCCC23CCCN2CCC3)c2ccccc12 | 90 to 91
CC1(C)CCC(=Cc2ccc(Cl)cc2)C(=O)C1 | 85 to 86
Cc1csc2nc(-c3ccc(C(=O)O)cc3)nc(Cc3ccc4c(c3)OCO4)c12 | 250
COc1c(C)cc(N=C=S)cc1C(=S)N(C)C | 74 to 75
COC(=O)CCCc1cc2nc(Cl)ccc2n1S(=O)(=O)c1ccc2nc(N)sc2c1 | 85 to 90
FC(F)(F)c1ccc(-c2cc(C(F)(F)F)n3cnc(I)c3n2)cc1 | 141
Cc1ccc(S(=O)(=O)n2c(=O)[nH]c3cc(Cl)ccc3c2=O)cc1C | > 250
CCC(=O)NCCC1c2cc(OC)ccc2-c2ccc(OC)cc21 | 139 to 140
COc1ccc2c(n1)C1(CO2)C(=O)N(CC2CCCO2)c2cccc(Br)c21 (centres undefined) | 110 to 112
NC(=O)CCCSc1nccc(NC(N)=NCC(F)(F)F)n1 | 202 to 203
CSc1ccc2c(c1)C(=O)OC2=O | 157 to 160
CCOC(=O)C1(Oc2ccc(O)cc2)CCC1 | 118 to 120
c1ccc(-c2cc3c(nn2)-c2ccccc2CN3)cc1 | 250 to 252
CCCn1nc(C(C)C)c(C(=O)OCc2ccccc2C(=O)c2ccccc2)c1Cc1ccc(-c2ccccc2S(=O)(=O)NC(=O)OC(C)(C)C)c(F)c1 | 57 to 61

Structure (SMILES) | melting point [°C]
C[C@H](N)C(=O)NC1N=C(c2ccccc2Cl)c2cc(Cl)ccc2N(C)C1=O (some centres undefined) | 232 to 233
CON(C)C(=O)c1cc(-n2c(=O)cc(C(F)(F)F)[nH]c2=O)c(F)cc1Cl | > 220
O=[N+]([O-])c1ccc(F)c(-c2cncnc2)c1F | 78 to 80
CC(=O)OCC(=O)[C@@]1(O)CCc2c(O)c3c(c(O)c2C1)C(=O)c1cccc(O)c1C3=O | 215 to 217
O=C(NCCCCCCO)Oc1ccc(Oc2ccccc2)cc1 | 72 to 75
O=C(Nc1cccc2c(NN3C(=O)CCC3=O)ccnc12)c1c(Cl)cccc1Cl | 170 to 173
Cn1ncc(NCCN2CCC(c3noc4cc(F)ccc34)CC2)cc1=O | 200 to 202
COC(=O)c1cc(C(=O)NCC(C)(C)C)ccc1-c1cc(C(=O)OC(C)(C)C)cc(F)c1C | 68 to 74
CCOC(=O)c1ccc(-c2cnc3c(c2)N(Cc2c(Cl)cccc2Cl)C(=O)CN3)cc1 | 226
COc1ccc2c(c1)CCC1C2CCC2(C)C(=O)CC(C)(C(C)C)C12 (centres undefined) | 113 to 115
CCCc1nn(-c2ccc(C(F)(F)F)cn2)cc1COc1cccc(CC(=O)O)c1 | 77 to 78
CCOCCNC(=O)n1cc(F)c(=O)[nH]c1=O | 134 to 135
O=Cc1ccc(C#Cc2cc3ncnc(Nc4ccc(OCc5cccc(F)c5)c(Cl)c4)c3s2)o1 | 229
COc1ccc(-c2cc(N3CCCCC3)c(C#N)c3c2-c2ccccc2C3)cc1 | 202 to 204
CCc1cc(CCc2nc3ccccc3o2)c(=O)[nH]c1CO | 155 to 156
NS(=O)(=O)c1cc(C(=O)O)cc(NCc2ccccc2)c1S(=O)c1ccccc1 (centres undefined) | 234
CN1CCN(c2nc(N)c3c(n2)CCCS3)CC1 | 140 to 141
C=Cc1c(N)nc(-c2ccc(Cl)c(OC)c2F)nc1C(=O)O | 167 to 168
Cc1cccc(NC(=O)NC2N=C(c3ccccc3F)c3ccccc3N(Cc3ncccc3C(=O)N3CCCC3)C2=O)c1 (racemic) | 153 to 155
O=c1ccc(-c2ccnnc2)c[nH]1 | > 250

Structure (SMILES) | melting point [°C]
O=C(O)c1oc2ccc(Cl)cc2c1-c1ccccc1 | 247 to 248
Cc1cccnc1NC(=O)OC(C)(C)C | 132 to 133
COc1ccc2[nH]ncc2c1C | 148 to 149
O=Cc1cc2ccccc2c(-c2ccc(I)cc2)n1 | 243 to 245
COC(=O)c1ccc(SC)cn1 | 71 to 73
O=C(O)c1cc(NC(C(=O)O)c2ccccc2Cl)c(Cl)cc1Cl (centres undefined) | 210
COc1ccc2c(c1)c1c(n2C)CCC(Cc2nc[nH]c2C)C1=O (centres undefined) | 227 to 229
CCOc1cnn(-c2cc(-c3ccnc(Nc4cccc(Cl)c4)n3)ccn2)c(=O)c1Cl | 196 to 198
N#Cc1c(-c2ccccc2)c(-c2ccccc2)nn(CCC(=O)NCC(=O)O)c1=O | 113 to 115
Cc1cc(F)ccc1-c1nc(NC2CCOCC2)nc2c1ccc(=O)n2-c1ccccc1F | 211 to 212
CC(CCCl)=C1SC(=S)N(CC(=O)O)C1=O | 205 to 207
CCn1c(=O)c2ccccc2n2cnc(-c3nc(COC)no3)c12 | 176
N#CN1c2ccccc2CC(=O)c2ccccc21 | 153 to 154
OC(C#Cc1ccncc1)c1ccccc1 (centres undefined) | 93 to 96
CCn1c(=O)c2conc2n(C)c1=O | 87 to 88
CC(c1ncnc(Cl)c1Cl)C(O)(Cn1cncn1)c1ccc(F)cc1F (centres undefined) | 124
Cn1c(=O)sc2ccc(C(c3ccc(C#N)cc3)n3cncn3)cc21 (centres undefined) | 122 to 125
O=Cc1ccc(OCc2ccsc2)cc1OC(C(=O)O)c1ccccc1 (racemic) | 172 to 174
O=c1oc(=O)n(C2CC2)c2cc(F)c(F)cc12 | 138 to 139
CCN1CCCC1CNS(=O)(=O)c1ccc(Nc2ccnc3cc(Cl)ccc23)cc1 (centres undefined) | 200 to 202
